# Data: US20230407304A1, “USE OF MICRORNA INHIBITION TO PREVENT AND TREAT OSTEOARTHRITIS AND OTHER INFLAMMATORY DISEASES” (VIRGINIA COMMONWEALTH UNIVERSITY, priority 2020, published 2023)
# What was measured:
# [1] = test system: rat articular chondrocytes (rArCs); assay: miR mimic or inhibitor transfection of rArCs with or without TNF-α stimulation; format: cell-based
# Protocol: FIGS. 7A-7F show assessment of miR-122 and miR-451 transfection or inhibition on TNF-α stimulated rat articular chondrocytes. rArCs were transfected at 60% confluence with miR-122, miR-451, miR-122-inhibitor (122-Inh), miR-451 inhibitor (451-Inh), or an empty vehicle (Lipo) for 24 hours followed by 24 hours with or without 10 ng/mL TNF-α stimulation. (FIG. 7A, 7D) Total DNA was measured from the cell monolayer and (FIG. 7B, 7E) MMP-13 and (FIG. 7C, 7F) PGE2 proteins were measured from the conditioned media. Groups not sharing a letter (A, B or C over bar) are statistically significant using an alpha=0.05.
# Rat articular chondrocytes (rArCs) were isolated using a previously established protocol (see Scott, supra). Briefly, rArCs were isolated from femoral condyles and tibial plateaus from 100-125 g male Sprague Dawley rats. Cartilage was sterilely sliced from the articular surfaces using a surgical blade and placed in Dulbecco's modification of Eagle's medium with 1 g/L glucose, 50 U/mL penicillin and streptomycin (pen-strep) (DMEM). After removing DMEM, cartilage was incubated with 0.05% trypsin (20 mins, 37° C.), rinsed with DMEM (50 U/mL pen-strep, 20 mins, 37° C.), and then digested with sterile-filtered 0.03% collagenase type II solution (Worthington Biochemical, Lakewood, NJ) in Hank's balanced salt solution (16 hrs, 37° C.). Digestion was quenched with an equal volume of DMEM containing 10% fetal bovine serum (FBS) and 50 U/mL pen-strep, strained through a 40 μm strainer (Greiner Bio-one, North Carolina), spun down at 500×g for 10 mins and plated at a seeding density of 15,000 cells/cm^2. These cells are at passage 0. All experiments used cells at passage 1.
# rArCs were plated at a seeding density of 15,000 cells/cm^2 and fed with DMEM supplemented with 10% FBS and 50 U/mL pen-strep. Media were changed 24 hours after plating and then every 48 hours. After treatments described below, conditioned media were collected, centrifuged at 1,000×g for 10 mins to remove cellular debris, aliquoted, and stored at −80° C. until assayed. Cell monolayers were rinsed twice with 1 mL of 1×PBS, lysed in 500 μL of 0.05% Triton X-100, and frozen for later DNA analysis. MMP-13 (ANASpec, Fremont, CA) and PGE2 (R&D Systems) were measured in the conditioned media by a microplate reader at ex/em 490 nm/520 nm, and 450 nm absorbance, respectively, in accordance with the manufacturer's directions. Data were normalized to the DNA content of the cell monolayer. Cell layers were thawed, and mechanically lysed by ultrasonication (40V, 10s/well) (VCX-120; Vibra-cell, Newtown, CT) and DNA was measured using QuantiFluor dsDNE system kit (Promega, Madson, WI) and quantified on a fluorescence plate reader at ex/em 504 nm/531 nm. […]
# articular chondrocytes = assay: miR-122 / miR-451 transfection of articular chondrocytes in presence and absence of IL-1β; format: cell-based, rat; conditions: miR transfection plus IL-1β stimulation
# Description: The following Examples with these microRNAs established their functions in articular chondrocytes in the presence and absence of the inflammatory cytokine IL-1β. Since IL-1β signaling is a major contributor of OA, a well-established model of creating an osteoarthritic phenotype in vitro is to stimulate cell cultures with this cytokine. This study first established that both these microRNAs were elevated in OA in the bilateral ACLT model.
# The miR-451 miR (SEQ ID NO:10) was originally chosen as a control miR but it had surprising and very specific functions. […] A series of transfections and inhibition experiments with these microRNAs confirmed that these changes were due to the microRNAs themselves.
# [2] = test system: resting zone and growth zone chondrocytes; assay: microRNA transfection of costochondral resting zone and growth zone chondrocytes; conditions: preliminary testing
# chondrocytes = conditions: in vitro studies (Scott; Tang et al.); cited from earlier work
substance,measurement,setting,value
"miR-451: mirVana miRNA mimic rno-miR-451-5p; AAACCGUUACCAUUACUGAGUU (AAACCGUUACCAUUACUGAGUU; listed as RNA, chemistry not given here)",change of total DNA on TNF-α treatment in transfected cells,"[1]; 14.5 nM mimic 24 hours, then 10 ng/mL TNF-α 24 hours",did not change total DNA
same,total DNA after mimic transfection,"[1]; 14.5 nM mimic, 24 hours, vs Lipo control",reduced total DNA compared to all groups
same,IL-1β-stimulated MMP-13,articular chondrocytes,exacerbated production in MMP-13 and PGE2
same,IL-1β-stimulated PGE2,articular chondrocytes,exacerbated production in MMP-13 and PGE2
same,growth factor VEGF,articular chondrocytes,decreased the growth factor VEGF
same,"inflammatory mediators, cytokines, chemokines (IL-1α, IL-2, IL-4, IL-6, GM-CSF, MIP-1A; RANTES for miR-122)",articular chondrocytes,"increased the inflammatory mediators, cytokines, chemokines"
same,proliferation,[2]; transfected costochondral resting zone and growth zone chondrocytes,decrease in total DNA and proliferation
same,total DNA,[2]; transfected growth plate chondrocytes,decrease in total DNA and proliferation
same,apoptosis and cell viability in chondrocytes,chondrocytes,does not induce apoptosis or compromise cell viability
